# Reference: the supplement of paper PMC6965134
# ± gives the standard deviation of the averaged measurements.
# Assay: TIMS collisional cross section (CCS, N2) of the lipid ion; higher = larger ion cross section
# Settings: ionization mode: positive, one isomer drawn
# Experimental: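 Lipid extracts of human plasma (NIST SRM 1950), mouse liver and HeLa cells were separated by nanoflow C18 LC (30 min gradient, 60 °C) and analysed by TIMS-PASEF on a timsTOF Pro in positive ion mode. Ion mobility was calibrated with the Agilent tuning mix and converted to collisional cross sections (Mason–Schamp) in N2 drift gas. Lipids were identified by MS/MS (SimLipid) and manual curation. SMILES are LIPID MAPS representative structures for the annotated lipid.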
Structure (SMILES),TIMS collisional cross section (sample type: plasma),TIMS collisional cross section (sample type: HeLa),TIMS collisional cross section (sample type: Liver)
CCCCCCCCCCCCCCCCCCCCCC(=O)OC[C@H](CO)OC(=O)CCCCCCCCCCCCCCCCCCCCC [DG 22:0_22:0_0:0] (ion (formula + adduct): [C47H92O5+NH4] 1+),301.3 Å²,–,–
C[C@H](CO)CC[C@H](O)[C@@H](C)[C@H]1CC[C@H]2[C@@H]3CC=C4C[C@@H](O)CC[C@]4(C)[C@H]3CC[C@]12C [Dormatinol] (ion (formula + adduct): [C27H46O3+H] 1+),210.9 Å²,–,–
CCCCCCCCCCCCC/C=C/[C@@H](O)[C@H](CO[C@@H]1OC(CO)[C@@H](O[C@@H]2OC(CO)[C@H](O)[C@H](O)C2O)[C@H](O)C1O)NC(=O)CCCCCCCCCCCCC (stereo partly drawn) [GlcCer d18:1_14:0@] (ion (formula + adduct): [C44H83NO13+H] 1+),–,297.2 Å²,–
CCCCCCCCCCCCC/C=C/[C@@H](O)[C@H](CO[C@@H]1OC(CO)[C@@H](O[C@@H]2OC(CO)[C@H](O)[C@H](O)C2O)[C@H](O)C1O)NC(=O)CCCCCCCCCCCCCCC (stereo partly drawn) [GlcCer d18:1_16:0@] (ion (formula + adduct): [C46H87NO13+H] 1+),304.2 Å²,–,–
CCCCCCCCCCCCC/C=C/[C@@H](O)[C@H](CO[C@@H]1OC(CO)[C@@H](O[C@@H]2OC(CO)[C@H](O)[C@H](O)C2O)[C@H](O)C1O)NC(=O)CCCCCCCCCCCCCCC (stereo partly drawn) [GlcCer d18:1_16:0] (ion (formula + adduct): [C46H87NO13+H] 1+),–,304.1 Å²,–
CCCCCCCCCCCCC/C=C/[C@@H](O)[C@H](CO[C@@H]1O[C@H](CO)[C@@H](O)C(O)C1O)NC(=O)CCCCCCCCCCCCCCCCCCC (stereo partly drawn) [GlcCer d18:1_20:0@] (ion (formula + adduct): [C44H85NO8+H] 1+),–,–,292.9 Å²
CCCCCCCCCCCCC/C=C/[C@@H](O)[C@H](CO[C@@H]1O[C@H](CO)[C@@H](O)C(O)C1O)NC(=O)CCCCCCCCCCCCCCCCCCCCC (stereo partly drawn) [GlcCer d18:1_22:0@] (ion (formula + adduct): [C46H89NO8+H] 1+),298.1 Å²,298.3 Å²,298.7 Å²
CCCCCCCCCCCCC/C=C/[C@@H](O)[C@H](CO[C@@H]1O[C@H](CO)[C@@H](O)C(O)C1O)NC(=O)CCCCCCCCCCCCCCCCCCCCCC (stereo partly drawn) [GlcCer d18:1_23:0@] (ion (formula + adduct): [C47H91NO8+H] 1+),–,301.5 Å²,301.2 Å²
CCCCCCCCCCCCC/C=C/[C@@H](O)[C@H](CO[C@@H]1O[C@H](CO)[C@@H](O)C(O)C1O)NC(=O)CCCCCCCCCCCCCCCCCCCCCCC (stereo partly drawn) [GlcCer d18:1_24:0@] (ion (formula + adduct): [C48H93NO8+H] 1+),–,304.2 Å²,304.1 Å²
CCCCCCCC/C=C\CCCCCCCCCCCCCC(=O)N[C@@H](CO[C@@H]1O[C@H](CO)[C@@H](O)C(O)C1O)[C@H](O)/C=C/CCCCCCCCCCCCC (stereo partly drawn) [GlcCer d18:1_24:1@] (ion (formula + adduct): [C48H91NO8+H] 1+),–,–,302.8 Å²
CCCCC/C=C\C/C=C\C/C=C\C/C=C\CCCC(=O)OC[C@@H](O)COP(=O)(O)O [LPA 20:4_0:0] (ion (formula + adduct): [C23H39O7P+H] 1+),205 Å²,–,–
CCCCCCCCCCCCCC(=O)OC[C@@H](O)COP(=O)([O-])OCC[N+](C)(C)C [LPC 14:0_0:0] (ion (formula + adduct): [C22H46NO7P+H] 1+),222.55 ± 0.78 Å²,222.8 Å²,–
CCCCCCCCCCCCCCCC(=O)O[C@H](CO)COP(=O)([O-])OCC[N+](C)(C)C [LPC 16:0] (ion (formula + adduct): [C24H50NO7P+H] 1+),231 Å²,–,229.9 Å²
CCCCCCCCCCCCCCCC(=O)OC[C@@H](O)COP(=O)([O-])OCC[N+](C)(C)C [LPC 16:0_0:0] (ion (formula + adduct): [C24H50NO7P+H] 1+),229.87 ± 0.98 Å²,230.8 Å²,230.6 Å²
CCCCCC/C=C/CCCCCCCC(=O)OC[C@@H](O)COP(=O)([O-])OCC[N+](C)(C)C [LPC 16:1] (ion (formula + adduct): [C24H48NO7P+H] 1+),225.13 ± 1.1 Å²,226 Å²,224.5 Å²
CCCCCC/C=C/CCCCCCCC(=O)OC[C@@H](O)COP(=O)([O-])OCC[N+](C)(C)C [LPC 16:1_0:0] (ion (formula + adduct): [C24H48NO7P+H] 1+),225.77 ± 1.4 Å²,–,–
CCCCCCCCCCCCCCCCCC(=O)O[C@H](CO)COP(=O)([O-])OCC[N+](C)(C)C [LPC 18:0] (ion (formula + adduct): [C26H54NO7P+H] 1+),238.4 Å²,237.1 Å²,–
CCCCCCCCCCC/C=C\CCCCC(=O)O[C@H](CO)COP(=O)([O-])OCC[N+](C)(C)C [LPC 18:1] (ion (formula + adduct): [C26H52NO7P+H] 1+),231.9 Å²,–,–
CCCCCCCCCCC/C=C\CCCCC(=O)OC[C@@H](O)COP(=O)([O-])OCC[N+](C)(C)C [LPC 18:1_0:0] (ion (formula + adduct): [C26H52NO7P+H] 1+),232.8 ± 0.42 Å²,233.6 Å²,232.95 ± 1.1 Å²
CCCCCCCCCCCCC/C=C/C=C/C(=O)OC[C@@H](O)COP(=O)([O-])OCC[N+](C)(C)C [LPC 18:2_0:0] (ion (formula + adduct): [C26H50NO7P+H] 1+),226.96 ± 1.1 Å²,227.3 ± 1.3 Å²,227.6 ± 1.3 Å²
CC/C=C\C/C=C\C/C=C\CCCCCCCC(=O)OC[C@@H](O)COP(=O)([O-])OCC[N+](C)(C)C [LPC 18:3] (ion (formula + adduct): [C26H48NO7P+H] 1+),224.9 Å²,–,–
CC/C=C/C=C/C=C/C=C/CCCCCCCC(=O)OC[C@@H](O)COP(=O)([O-])OCC[N+](C)(C)C [LPC 18:4] (ion (formula + adduct): [C26H46NO7P+H] 1+),220.8 Å²,–,–
CCCCCCCCCCCCCCCCCCCC(=O)OC[C@@H](O)COP(=O)([O-])OCC[N+](C)(C)C [LPC 20:0_0:0] (ion (formula + adduct): [C28H58NO7P+H] 1+),245 Å²,–,–
CCCCCCCCCC/C=C\CCCCCCCC(=O)OC[C@@H](O)COP(=O)([O-])OCC[N+](C)(C)C [LPC 20:1_0:0] (ion (formula + adduct): [C28H56NO7P+H] 1+),239.3 Å²,–,239 Å²
CCCCC/C=C\C/C=C\C/C=C\CCCCCCC(=O)OC[C@@H](O)COP(=O)([O-])OCC[N+](C)(C)C [LPC 20:3] (ion (formula + adduct): [C28H52NO7P+H] 1+),232.57 ± 2.1 Å²,234.05 ± 2.8 Å²,236.2 Å²
